Assays:
human adenosine A2AR = target: T1, human adenosine A2AR (Homo sapiens, UniProt P29274); assay: Radioligand binding at human adenosine A2A receptor vs. [3H]MSX-2; conditions: for Ki: human recombinant receptor in CHO cells, read-out: A2AR vs. [³H]MSX-2 Ki ± SEM
T1 construct: expressed in transfected cells; host or cells: CHO cells
Procedure: (§1) Affinities for adenosine receptors were evaluated in radioligand binding assays as previously described. Human adenosine receptors were stably expressed in CHO cells. The following radioligands were used: [^3H]2-chloro-N^6-cyclopentyladenosine ([^3H]CCPA) for A1R; [^3H]3-(3-hydroxypropyl)-7-methyl-8-(m-methoxystyryl)-1-propargylxanthine ([^3H]MSX-2) for A2AR; [^3H]8-(4-(4-(4-chlorophenyl)piperazine-1-sulfonyl)phenyl)-1-propylxanthine ([^3H]PSB-603) for A2BR; [^3H]phenyl-8-ethyl-4-methyl-(8R)-4,5,7,8-tetrahydro-1H-imidazo [2,1-i]purine-5-one ([^3H]PSB-11) for A3R. Initially, compounds were tested at a concentration of 1 µM. […] At least three independent experiments were performed. Data were analyzed using GraphPad PRISM version 5.0 or higher (Graph Pad, San Diego, CA, USA). Ki were calculated using the Cheng–Prusoff equation.

human adenosine A3R = target: T2, human adenosine A3R (Homo sapiens, UniProt P0DMS8); assay: Radioligand binding at human adenosine A3 receptor vs. [3H]PSB-11; conditions: for inhibition at 1 µM: CHO cells, read-out: A3R vs. [H³]PSB-11 % Inhibition ± SEM at 1 µM; for Ki: human recombinant receptor in CHO cells, read-out: A3R vs. [H³]PSB-11 Ki ± SEM
T2 construct: expressed in transfected cells; host or cells: CHO cells
T2 sequence (P0DMS8 1-318): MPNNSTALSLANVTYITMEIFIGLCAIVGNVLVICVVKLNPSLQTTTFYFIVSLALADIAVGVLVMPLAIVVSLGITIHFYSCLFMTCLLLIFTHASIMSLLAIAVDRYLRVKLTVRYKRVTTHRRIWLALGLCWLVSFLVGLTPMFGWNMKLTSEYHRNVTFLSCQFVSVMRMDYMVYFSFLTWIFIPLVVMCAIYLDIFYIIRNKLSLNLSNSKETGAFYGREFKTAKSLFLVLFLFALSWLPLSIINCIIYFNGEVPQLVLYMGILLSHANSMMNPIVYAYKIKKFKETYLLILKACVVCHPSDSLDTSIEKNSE
Procedure: as §1

human MAO B = target: T3, human MAO B (Homo sapiens, UniProt P27338); assay: Human MAO B inhibition, fluorometric method; format: biochemical; conditions: mean of two independent experiments, read-out: % of hMAO B Inhibition at 1 µM
T3 sequence (P27338 1-520): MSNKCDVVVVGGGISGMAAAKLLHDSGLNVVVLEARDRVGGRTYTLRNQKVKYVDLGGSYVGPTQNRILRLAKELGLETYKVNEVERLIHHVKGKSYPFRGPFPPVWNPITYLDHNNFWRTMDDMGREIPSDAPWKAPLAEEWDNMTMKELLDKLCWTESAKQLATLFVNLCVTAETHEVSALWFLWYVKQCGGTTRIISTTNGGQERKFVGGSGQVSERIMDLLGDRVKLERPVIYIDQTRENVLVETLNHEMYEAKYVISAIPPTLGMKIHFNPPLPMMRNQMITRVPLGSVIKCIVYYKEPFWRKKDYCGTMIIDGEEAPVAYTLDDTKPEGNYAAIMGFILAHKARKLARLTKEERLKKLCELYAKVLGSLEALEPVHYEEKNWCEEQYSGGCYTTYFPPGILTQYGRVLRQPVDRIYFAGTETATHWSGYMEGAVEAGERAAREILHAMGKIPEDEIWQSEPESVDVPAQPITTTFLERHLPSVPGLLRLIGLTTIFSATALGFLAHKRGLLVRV
Procedure: The compounds were tested twice in duplicates at a concentration of 1 μM by fluorometric method as previously described. Paratyramine (200 μM) was used as a substrate for the enzyme. Safinamide (1 μM; reversible) and rasagiline (1 μM; irreversible) were used as reference inhibitors.

human adenosine A2BR = target: T4, human adenosine A2BR (Homo sapiens, UniProt P29275); assay: Radioligand binding at human adenosine A2B receptor vs. [3H]PSB-603; conditions: for inhibition at 1 µM: CHO cells, read-out: A2BR vs. [³H]PSB-603 % Inhibition ± SEM at 1 µM; for Ki: human recombinant receptor in CHO cells, read-out: A2BR vs. [³H]PSB-603 Ki ± SEM
T4 construct: expressed in transfected cells; host or cells: CHO cells
T4 sequence (P29275 1-332): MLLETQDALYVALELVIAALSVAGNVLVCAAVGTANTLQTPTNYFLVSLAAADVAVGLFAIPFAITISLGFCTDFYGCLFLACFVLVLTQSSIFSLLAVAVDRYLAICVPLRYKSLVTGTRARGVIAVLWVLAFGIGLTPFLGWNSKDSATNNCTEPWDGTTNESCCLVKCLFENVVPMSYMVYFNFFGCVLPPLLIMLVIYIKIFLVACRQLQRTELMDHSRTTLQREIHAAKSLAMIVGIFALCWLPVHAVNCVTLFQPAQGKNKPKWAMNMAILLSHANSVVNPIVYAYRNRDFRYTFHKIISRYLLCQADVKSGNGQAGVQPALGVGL
Procedure: as §1

human adenosine A1R = target: T5, human adenosine A1R (Homo sapiens, UniProt P30542); assay: Radioligand binding at human adenosine A1 receptor vs. [3H]CCPA; conditions: for Ki: human recombinant receptor in CHO cells, read-out: A1R vs. [³H]CCPA Ki ± SEM; for inhibition at 1 µM: CHO cells, read-out: A1R vs. [³H]CCPA % Inhibition ± SEM at 1 µM
T5 construct: expressed in transfected cells; host or cells: CHO cells
T5 sequence (P30542 1-326): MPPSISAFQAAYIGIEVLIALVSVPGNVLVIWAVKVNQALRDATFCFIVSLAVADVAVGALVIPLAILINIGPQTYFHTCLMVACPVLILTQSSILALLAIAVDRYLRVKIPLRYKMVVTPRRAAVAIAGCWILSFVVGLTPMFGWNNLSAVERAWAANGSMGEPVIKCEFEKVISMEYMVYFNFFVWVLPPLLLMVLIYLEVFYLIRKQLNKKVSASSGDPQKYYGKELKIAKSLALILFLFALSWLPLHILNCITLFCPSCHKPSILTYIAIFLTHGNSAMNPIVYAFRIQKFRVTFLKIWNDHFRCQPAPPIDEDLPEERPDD
Procedure: as §1

T1 sequence (P29274 whole entry): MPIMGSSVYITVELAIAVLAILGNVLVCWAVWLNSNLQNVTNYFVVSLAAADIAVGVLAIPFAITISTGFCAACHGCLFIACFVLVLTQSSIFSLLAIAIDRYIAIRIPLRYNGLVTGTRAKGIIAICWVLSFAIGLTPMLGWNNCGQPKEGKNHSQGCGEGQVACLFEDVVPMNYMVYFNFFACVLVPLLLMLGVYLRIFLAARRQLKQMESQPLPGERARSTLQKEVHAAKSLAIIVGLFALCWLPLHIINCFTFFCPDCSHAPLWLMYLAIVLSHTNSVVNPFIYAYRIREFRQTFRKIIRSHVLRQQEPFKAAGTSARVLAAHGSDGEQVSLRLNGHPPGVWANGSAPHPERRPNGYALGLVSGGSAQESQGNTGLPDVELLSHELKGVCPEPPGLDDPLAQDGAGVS

| Structure (SMILES) | Ki (human adenosine A2AR) [nM] | inhibition at 1 µM (human adenosine A3R) [%] | Ki (human adenosine A3R) [nM] | melting point [°C] | inhibition at 1 µM (human MAO B) [%] | inhibition at 1 µM (human adenosine A2BR) [%] | Ki (human adenosine A2BR) [nM] | Ki (human adenosine A1R) [nM] | inhibition at 1 µM (human adenosine A1R) [%] | A2AR vs. [³H]MSX-2 % Inhibition ± SEM at 1 µM (human adenosine A2AR; 1 µM, CHO cells) [%] |
| --- | --- | --- | --- | --- | --- | --- | --- | --- | --- | --- |
| CCCn1c(=O)c2c(nc(NCc3cccc(Br)c3)n2C)n(C)c1=O [compound 16, 8-((3-Bromobenzyl)amino)-3,7-dimethyl-1-propyl-3,7-dihydro-1H-purine-2,6-dione] | 254 ± 59 | 11 | > 1000 | 220 to 222 | 11 | 30 | > 1000 | 340 ± 73 |  |  |
| C#CCn1c(=O)c2c(nc(NCc3cccc(OC)c3)n2C)n(C)c1=O [compound 25, 8-((3-Methoxybenzyl)amino)-3,7-dimethyl-1-(prop-2-yn-1-yl)-3,7-dihydro-1H-purine-2,6-dione] | 225 ± 40 | 0 | > 1000 | 217 to 219 | 11 | 35 | > 1000 | 460 ± 99 |  |  |
| CCCn1c(=O)c2c(nc(NCc3cccc(Cl)c3)n2C)n(C)c1=O [compound 15, 8-((3-Chlorobenzyl)amino)-3,7-dimethyl-1-propyl-3,7-dihydro-1H-purine-2,6-dione] | 588 ± 74 | 0 | > 1000 | 185 to 187 | 10 | 34 | > 1000 | > 1000 | 40 |  |
| CCCn1c(=O)c2c(nc(NCc3cccc(OC)c3)n2C)n(C)c1=O [compound 17, 8-((3-methoxybenzyl)amino)-3,7-dimethyl-1-propyl-3,7-dihydro-1H-purine-2,6-dione] | 605 ± 120 | 6 | > 1000 | 173 to 175 | 5 | 20 | > 1000 | > 1000 | 17 |  |
| C#CCn1c(=O)c2c(nc(NCc3ccc(OC)c(OC)c3)n2C)n(C)c1=O [compound 26, 8-((3,4-dimethoxybenzyl)amino)-3,7-dimethyl-1-(prop-2-yn-1-yl)-3,7-dihydro-1H-purine-2,6-dione] | 108 ± 22 | 2 | > 1000 | 247 to 249 | 3 | 28 | > 1000 | > 1000 | -2 |  |
| CCCn1c(=O)c2c(nc(NCc3ccccc3F)n2C)n(C)c1=O [compound 13, 8-((2-Fluorobenzyl)amino)-3,7-dimethyl-1-propyl-3,7-dihydro-1H-purine-2,6-dione] | > 1000 | 6 | > 1000 | 224 to 226 | 15 | 21 | > 1000 | > 1000 | 32 | 47 ± 2 |
| C#CCn1c(=O)c2c(nc(NCc3ccccc3Br)n2C)n(C)c1=O [compound 20, 8-((2-Bromobenzyl)amino)-3,7-dimethyl-1-(prop-2-yn-1-yl)-3,7-dihydro-1H-purine-2,6-dione] | 137 ± 35 | 13 | > 1000 | 210 to 212 | 32 | 25 | > 1000 | > 1000 | 44 |  |
| C#CCn1c(=O)c2c(nc(NCc3ccccc3F)n2C)n(C)c1=O [compound 21, 8-((2-Fluorobenzyl)amino)-3,7-dimethyl-1-(prop-2-yn-1-yl)-3,7-dihydro-1H-purine-2,6-dione] | 287 ± 90 | 21 | > 1000 | 224 to 226 | 8 | 41 | > 1000 | 353 ± 42 |  |  |

— publication PMC10531311, “Anti-Inflammatory Activities of 8-Benzylaminoxanthines Showing High Adenosine A2A and Dual A1/A2A Receptor Affinity” (International Journal of Molecular Sciences, 2023)
